Source: patent US10385065B2, “Antibacterial compounds” (priority 2014, dated 2019)
In brackets after ≈: the same amount, converted by molar mass. Like-named read-outs stand apart in the source and are kept apart here.

Columns and labels:
Assay type in all cases: cell-based
[1] = test system: Staphylococcus aureus ATCC 29213; assay: MIC, broth microdilution, S. aureus ATCC 29213
[2] = test system: Haemophilus influenzae ATCC 49247; assay: MIC, H. influenzae ATCC 49247; settings: ATCC49247, Table 4
[3] = test system: Escherichia coli ATCC 25922; assay: MIC, broth microdilution, E. coli ATCC 25922; settings: ATCC25922, Table 1, wild type strain
[4] = test system: Enterococcus faecium ATCC 19434; assay: MIC, E. faecium ATCC 19434; settings: ATCC19434, Table 2
[5] = ATCC29213, Table 1, wild type strain, read-out: MIC S. aureus ATCC 29213
[6] = ATCC 29213 / MSSA, Table 2, read-out: MIC S. aureus (MSSA) ATCC 29213 CLSI control strain

Row | Structure (SMILES) | MIC [1, 5] [µg/mL] | MIC [1, 6] [µg/mL] | MIC [2] [µg/mL] | MIC [3] [µg/mL] | MIC [4] [µg/mL]
1 | Cc1c(-c2cnc(N)cn2)ccc2c3ocnc3c(=O)n(C3CC3)c12 [Compound 6, 7-(5-aminopyrazin-2-yl)-5-cyclopropyl-6-methyl-oxazolo[4,5-c]quinolin-4-one] | 10 to 100 (≈ 30 to 300 µM) | 10 to 100 (≈ 30 to 300 µM) | > 100 | > 100 | > 100
2 | Cc1nc2c(=O)n(C3CC3)c3c(C)c(-c4cnc(C(C)(C)O)nc4)ccc3c2o1 [Compound 37, 5-cyclopropyl-7-[2-(2-hydroxypropan-2-yl)pyrimidin-5-yl]-2,6-dimethyl-oxazolo[4,5-c]quinolin-4-one] | 10 to 100 (≈ 25.6 to 256 µM) | 10 to 100 (≈ 25.6 to 256 µM) | 10 to 100 (≈ 25.6 to 256 µM) | > 100 | > 100
3 | CC(=O)c1ccc(-c2ccc3c4ocnc4c(=O)n(C4CC4)c3c2C)nc1 [Compound 42, 7-(5-acetylpyridin-2-yl)-5-cyclopropyl-6-methyl-oxazolo[4,5-c]quinolin-4-one] | 10 to 100 (≈ 27.8 to 278 µM) | 10 to 100 (≈ 27.8 to 278 µM) | > 100 | > 100 | > 100
4 | Cc1c(-c2ccc3[nH]nnc3c2)ccc2c3ocnc3c(=O)n(C3CC3)c12 [Compound 44, 7-(1H-1,2,3-benzotriazol-5-yl)-5-cyclopropyl-6-methyl-oxazolo[4,5-c]quinolin-4-one] | > 100 | > 100 | > 100 | > 100 | > 100
5 | Cc1c(-c2ccc(O)cn2)ccc2c3ocnc3c(=O)n(C3CC3)c12 [Compound 45, 5-cyclopropyl-7-(5-hydroxypyridin-2-yl)-6-methyl-oxazolo[4,5-c]quinolin-4-one] | 10 to 100 (≈ 30 to 300 µM) | 10 to 100 (≈ 30 to 300 µM) | 10 to 100 (≈ 30 to 300 µM) | > 100 | > 100
6 | Cc1c(-c2cc(F)c(C(=O)O)cc2F)ccc2c3ocnc3c(=O)n(C3CC3)c12 [Compound 47, 4-{5-cyclopropyl-6-methyl-4-oxo-oxazolo[4,5-c]quinolin-7-yl}-2,5-difluorobenzoic acid] | 10 to 100 (≈ 25.2 to 252 µM) | 10 to 100 (≈ 25.2 to 252 µM) | > 100 | > 100 | > 100
7 | Cc1nc2c(=O)n(C3CC3)c3cc(N4CCC(O)C4)c(F)cc3c2o1 (stereo not shown) [Compound 53, 5-cyclopropyl-8-fluoro-7-(3-hydroxypyrrolidin-1-yl)-2-methyl-oxazolo[4,5-c]quinolin-4-one] | 10 to 100 (≈ 29.1 to 291 µM) | 10 to 100 (≈ 29.1 to 291 µM) | 1 to 10 (≈ 2.91 to 29.1 µM) | 10 to 100 (≈ 29.1 to 291 µM) | > 100
8 | O=c1c2ncoc2c2cc(F)c(-c3ccc(C(F)(F)F)nc3)cc2n1C1CC1 [Compound 60, 5-cyclopropyl-8-fluoro-7-[6-(trifluoromethyl)-3-pyridyl]oxazolo[4,5-c]quinolin-4-one] | 10 to 100 (≈ 25.7 to 257 µM) | 10 to 100 (≈ 25.7 to 257 µM) | 1 to 10 (≈ 2.57 to 25.7 µM) | > 100 | > 100
9 | CCOC(=O)c1ccc(-c2cc3c(cc2F)c2ocnc2c(=O)n3C2CC2)cc1 [Compound 61, ethyl 4-(5-cyclopropyl-8-fluoro-4-oxo-oxazolo[4,5-c]quinolin-7-yl)benzoate] | > 100 | > 100 | > 100 | > 100 | > 100
10 | Nc1ncc(-c2cc3c(cc2F)c2ocnc2c(=O)n3C2CC2)cn1 [Compound 62, 7-(2-aminopyrimidin-5-yl)-5-cyclopropyl-8-fluoro-oxazolo[4,5-c]quinolin-4-one] | 1 to 10 (≈ 2.96 to 29.6 µM) | 1 to 10 (≈ 2.96 to 29.6 µM) | 1 to 10 (≈ 2.96 to 29.6 µM) | 10 to 100 (≈ 29.6 to 296 µM) | > 100
11 | COc1ccc(-c2cc3c(cc2F)c2ocnc2c(=O)n3C2CC2)cc1 [Compound 63, 5-cyclopropyl-8-fluoro-7-(4-methoxyphenyl)oxazolo[4,5-c]quinolin-4-one] | > 100 | > 100 | > 100 | > 100 | > 100
12 | N#Cc1c(F)cc(-c2cc3c(cc2F)c2ocnc2c(=O)n3C2CC2)cc1F [Compound 65, 4-(5-cyclopropyl-8-fluoro-4-oxo-oxazolo[4,5-c]quinolin-7-yl)-2,6-difluoro-benzonitrile] | 1 to 10 (≈ 2.62 to 26.2 µM) | 1 to 10 (≈ 2.62 to 26.2 µM) | 10 to 100 (≈ 26.2 to 262 µM) | > 100 | > 100
13 | CN(C)C(=O)c1ccc(-c2cc3c(cc2F)c2ocnc2c(=O)n3C2CC2)cc1 [Compound 66, 4-(5-cyclopropyl-8-fluoro-4-oxo-oxazolo[4,5-c]quinolin-7-yl)-N,N-dimethyl-benzamide] | 1 to 10 (≈ 2.55 to 25.5 µM) | 1 to 10 (≈ 2.55 to 25.5 µM) | 10 to 100 (≈ 25.5 to 255 µM) | > 100 | > 100
14 | CNC(=O)c1ccc(-c2cc3c(cc2F)c2ocnc2c(=O)n3C2CC2)cc1F [Compound 67, 4-(5-cyclopropyl-8-fluoro-4-oxo-oxazolo[4,5-c]quinolin-7-yl)-2-fluoro-N-methyl-benzamide] | 1 to 10 (≈ 2.53 to 25.3 µM) | 1 to 10 (≈ 2.53 to 25.3 µM) | 10 to 100 (≈ 25.3 to 253 µM) | > 100 | > 100
15 | Nc1ccc(-c2cc3c(cc2F)c2ocnc2c(=O)n3C2CC2)cn1 [Compound 70, 7-(6-amino-3-pyridyl)-5-cyclopropyl-8-fluoro-oxazolo[4,5-c]quinolin-4-one] | 10 to 100 (≈ 29.7 to 297 µM) | 10 to 100 (≈ 29.7 to 297 µM) | > 100 | > 100 | > 100
16 | Cc1nc2c(=O)n(C3CC3)c3cc(-c4ccc(C=O)cc4)c(F)cc3c2o1 [Compound 72, 4-(5-cyclopropyl-8-fluoro-2-methyl-4-oxo-oxazolo[4,5-c]quinolin-7-yl)benzaldehyde] | 10 to 100 (≈ 27.6 to 276 µM) | 10 to 100 (≈ 27.6 to 276 µM) | 1 to 10 (≈ 2.76 to 27.6 µM) | > 100 | > 100

Second part, the compound after the results:

Row | MIC [1, 5] [µg/mL] | MIC [1, 6] [µg/mL] | MIC [2] [µg/mL] | MIC [3] [µg/mL] | MIC [4] [µg/mL] | Structure (SMILES)
17 | 1 to 10 (≈ 2.61 to 26.1 µM) | 1 to 10 (≈ 2.61 to 26.1 µM) | 1 to 10 (≈ 2.61 to 26.1 µM) | > 100 | > 100 | Cc1c(-c2cc(F)c(N)cc2F)ccc2c3oc(=O)[nH]c3c(=O)n(C3CC3)c12 [Compound 3, 7-(4-amino-2,5-difluoro-phenyl)-5-cyclopropyl-6-methyl-3H-oxazolo[4,5-c]quinoline-2,4-dione]
18 | 1 to 10 (≈ 3.16 to 31.6 µM) | 1 to 10 (≈ 3.16 to 31.6 µM) | 10 to 100 (≈ 31.6 to 316 µM) | > 100 | 10 to 100 (≈ 31.6 to 316 µM) | Cc1c(-c2ccccc2)ccc2c3ocnc3c(=O)n(C3CC3)c12 [Compound 7, 5-cyclopropyl-6-methyl-7-phenyl-oxazolo[4,5-c]quinolin-4-one]
19 | 1 to 10 (≈ 2.66 to 26.6 µM) | > 100 | 1 to 10 (≈ 2.66 to 26.6 µM) | 10 to 100 (≈ 26.6 to 266 µM) | > 100 | Cc1nc2c(=O)n(C3CC3)c3c(C)c(-c4cnn(C5CNC5)c4)ccc3c2o1 [Compound 12, 7-[1-(azetidin-3-yl)pyrazol-4-yl]-5-cyclopropyl-2,6-dimethyl-oxazolo[4,5-c]quinolin-4-one]
20 | < 1 | < 1 | > 100 | > 100 | > 100 | Cc1nc2c(=O)n(C3CC3)c3c(C)c(-c4ccc(N)c(F)c4)ccc3c2o1 [Compound 13]
21 | < 1 | 1 to 10 (≈ 2.88 to 28.8 µM) | 10 to 100 (≈ 28.8 to 288 µM) | 10 to 100 (≈ 28.8 to 288 µM) | 10 to 100 (≈ 28.8 to 288 µM) | Cc1nc2c(=O)n(C3CC3)c3c(C)c(-c4cnc(N)nc4)ccc3c2o1 [Compound 16, 7-(2-aminopyrimidin-5-yl)-5-cyclopropyl-2,6-dimethyl-oxazolo[4,5-c]quinolin-4-one]
22 | 1 to 10 (≈ 2.44 to 24.4 µM) | 1 to 10 (≈ 2.44 to 24.4 µM) | < 1 | 1 to 10 (≈ 2.44 to 24.4 µM) | > 100 | Cc1nc2c(=O)n(C3CC3)c3c(C)c(-c4ccc(S(N)(=O)=O)cc4)ccc3c2o1 [Compound 17]
23 | < 1 | < 1 | 1 to 10 (≈ 2.62 to 26.2 µM) | 1 to 10 (≈ 2.62 to 26.2 µM) | 10 to 100 (≈ 26.2 to 262 µM) | Cc1nc2c(=O)n(C3CC3)c3c(C)c(-c4cc(F)c(O)cc4F)ccc3c2o1 [Compound 32, 5-cyclopropyl-7-(2,5-difluoro-4-hydroxy-phenyl)-2,6-dimethyl-oxazolo[4,5-c]quinolin-4-one]
24 | 1 to 10 (≈ 3.25 to 32.5 µM) | 1 to 10 (≈ 3.25 to 32.5 µM) | 10 to 100 (≈ 32.5 to 325 µM) | 10 to 100 (≈ 32.5 to 325 µM) | > 100 | Cc1c(-c2cnoc2)ccc2c3ocnc3c(=O)n(C3CC3)c12 [Compound 43, 5-cyclopropyl-6-methyl-7-(1,2-oxazol-4-yl)-oxazolo[4,5-c]quinolin-4-one]
25 | 1 to 10 (≈ 2.81 to 28.1 µM) | 1 to 10 (≈ 2.81 to 28.1 µM) | 1 to 10 (≈ 2.81 to 28.1 µM) | 1 to 10 (≈ 2.81 to 28.1 µM) | 10 to 100 (≈ 28.1 to 281 µM) | Cc1nc2c(=O)n(C3CC3)c3cc(N4CCCC(N)C4)c(F)cc3c2o1 (stereo not shown) [Compound 51, 7-(3-aminopiperidin-1-yl)-5-cyclopropyl-8-fluoro-2-methyl-oxazolo[4,5-c]quinolin-4-one]
26 | 1 to 10 (≈ 2.81 to 28.1 µM) | 1 to 10 (≈ 2.81 to 28.1 µM) | 1 to 10 (≈ 2.81 to 28.1 µM) | 10 to 100 (≈ 28.1 to 281 µM) | > 100 | O=c1c2ncoc2c2cc(F)c(-c3ccncc3Cl)cc2n1C1CC1 [Compound 59, 7-(3-chloro-4-pyridyl)-5-cyclopropyl-8-fluoro-oxazolo[4,5-c]quinolin-4-one]
27 | < 1 | < 1 | < 1 | 1 to 10 (≈ 2.59 to 25.9 µM) | > 100 | O=c1c2ncoc2c2cc(F)c(-c3cc(F)c(CO)cc3F)cc2n1C1CC1 [Compound 68, 5-cyclopropyl-7-[2,5-difluoro-4-(hydroxymethyl)phenyl]-8-fluoro-oxazolo[4,5-c]quinolin-4-one]
28 | < 1 | < 1 | 1 to 10 (≈ 2.67 to 26.7 µM) | > 100 | > 100 | Cc1nc2c(=O)n(C3CC3)c3cc(-c4ccc5[nH]ncc5c4)c(F)cc3c2o1 [Compound 73, 5-cyclopropyl-8-fluoro-7-(1H-indazol-5-yl)-2-methyl-oxazolo[4,5-c]quinolin-4-one]
29 | < 1 | – | – | < 1 | – | Cc1nc2c(=O)n(C3CC3)c3c(Cl)c(N4CCC(CN)C4)c(F)cc3c2o1 (stereo not shown) [Compound 110, 7-[3-(aminomethyl)pyrrolidin-1-yl]-6-chloro-5-cyclopropyl-8-fluoro-2-methyl-oxazolo[4,5-c]quinolin-4-one]
